# Experimental data from patent publication US20250332183A1, “COMPOSITIONS AND METHODS FOR THE STIMULATION OF INTERMEDIATE MACROPHAGES AND TREATMENTS THEREWITH” (priority 2024, published 2025).
# Assays:
# [1] = system: preterm lamb model of BPD; test: Lung histopathology and quantitative histology of lamb lungs; format: in vivo; conditions: for radial alveolar count (RAC) / distal airspace wall thickness / secondary septal volume density: vs vehicle
# Procedure: Terminal tissue collection. The inventors followed the methods the developed for terminal tissue collection.^14,17,26-28 Briefly, at the end of the early-stage study (DOL10) or late-stage study (DOL90 for FPT lambs; DOL60 for term reference lambs), the lambs were given ketamine (10-20 mg/Kg, intramuscularly) followed by face mask inhalation anesthesia with 1.0-2.5% isoflurane with O2. Lambs were intubated and ventilated with a tidal volume of 5-7 mL/kg, and given heparin (1000 U, iv). The lambs were given Beuthanasia solution (0.25 mL/Kg, iv; Intervet Inc., Madison, NJ) followed by potassium chloride (10 mEq, iv; Hospira, Lake Forest, IL).
# For morphological analyses, the entire left lung was insufflated with formalin and sampled by systematic, uniform, random methods for quantitative histology.^29 Morphometric and stereologic methods quantified radial alveolar count, secondary septal volume density, and thickness of distal airspace walls.^27 Alveolar capillary growth was quantified by a combination of immunohistochemistry to identify endothelial cells in lung tissue sections and quantitative histology.^27 For capillary surface density measurement, a recombinant anti-CD-34 antibody was used (ab81289, Abcam; Waltham, MA) for the capillary endothelial cell marker. Negative immunostain controls were omission of the primary antibody, omission of the secondary antibody, and substitution of the primary antibody with a species-matched, irrelevant antibody. Epithelium lining the air spaces was counterstained blue. The inventors used a computer-assisted true-color imaging system (Bioquant Life Science, Nashville, TN) to quantify the surface density of alveolar capillaries and the overlying epithelium.
# [2] = system: cord blood mononuclear cells (CBMCs); test: Macrophage lineage in CBMCs; format: cell-based, human; conditions: 100 μM and LPS 50 ng/mL, 72 h (3d), HLA-DRlow/CD163high
# Text: N=3, *P<0.05, Two-way ANOVA was used for statistical analysis.
# [3] = system: TLR4 and pathway-related cytokines, apoptosis, proliferation and permeability markers in lung tissue homogenates; test: Immunoblot and RT-PCR of lamb lung tissue homogenates; format: in vivo
# Procedure: For molecular analyses, the right caudal lobe was cut into 1 cm^3 pieces (˜1 g each), again using systematic, uniform, random sampling methods. The lung pieces were from peripheral tissue devoid of visceral pleura and central airways, vessels, and connective tissue. The pieces were snap-frozen in liquid nitrogen and stored at −80° C. Homogenates of frozen tissue pieces were used for quantitative real-time RT-PCR and immunoblot analyses. Expression of mRNA was normalized to GAPDH. For immunoblot analysis, cleaved caspase 3 was used (EnzoADI-AAP-113, Enzo Life Sciences, Inc., Farmingdale, NY), PCNA (ab2426, Abcam, Cambridge, MA), and VEGF-R2 (sc-393163, Santa Cruz Biotechnology, Dallas, TX) proteins. Positive controls for immunoblot were the respective native proteins. Protein abundance was normalized, using Memcode (P124585, Fisher Scientific, Pittsburgh, PA).
# TLR4 pathway = test: Western blot of TLR4 pathway proteins in hPBMC and CBMCs; format: cell-based, human; conditions: 100 μM, alone and with LPS 50 ng/mL
# Procedure: FIGS. 14A to 14D show Western Blot analysis for quantification of TLR4 pathway proteins and densitometry of (FIGS. 14A-FIG. 14C) using adult hPBMC and (FIG. 14D) CBMCs. After treatment with AVR-48 [100 μM], LPS [50 ng/mL], and in combination indicates AVR-48 activates TLR4 pathway via increasing phospho-MyD88 and phospho-TTRAP, with no activation via TRAM, and inhibiting the phosphorylation of the NF-kB pathway.
# CBMCs were treated with either AVR-123 [100 μM], LPS [50 ng/mL] or AVR-123+LPS for 24 h. […] (FIG. 23G) AVR-123 decreases phosphorylated NFkB alone and when combined with LPS in CBMCs via western blot analysis. N=3, One-way ANOVA.
# [4] = system: cord blood mononuclear cells (CBMCs); test: LPS tolerance / pretreatment in CBMCs; format: cell-based, human
# Procedure: Cells were dosed with AVR-48 [100 μM], LPS [50 ng/mL], and in combination show (FIG. 16A). […] N=3, One-way ANOVA was used for analysis. […] N=3, Two-way ANOVA.
# N=3 *p<0.05, **p<0.01, ***p<0.001. One-way ANOVA and t tests.
# hPBMCs = test: Macrophage lineage in hPBMCs over 3, 7 and 10 days; format: cell-based, human; conditions: 100 μM
# [5] = late-stage study, FPT lambs vs FPT vehicle
smiles,measurement,setting,value
CC(=O)NC1C(Oc2ccc([N+](=O)[O-])cc2)OC(CO)C(O)C1O (centres unmarked) [AVR-48],radial alveolar count (RAC),"[1]; 10d, PT lambs, 3.0 mg/kg",significant increase
same,distal airspace wall thickness,"[1]; 10d, PT lambs",significantly thinner
same,secondary septal volume density,"[1]; 10d, PT lambs",significantly higher
same,radial alveolar count (RAC),"[1]; 90d, FPT lambs, 3.0 mg/kg",significant increase
same,distal airspace wall thickness,"[1]; 90d, FPT lambs",thinner (but not statistically different)
same,secondary septal volume density,"[1]; 90d, FPT lambs",higher in the AVR-48 lambs (but not statistically different)
same,development of terminal respiratory units (TRUs),"[1]; early-stage and late-stage studies, 3.0 mg/kg",significantly better development
same,macrophage lineage,[2],preference for intermediate macrophage lineage
same,P53 in lung,"[3]; 90-day study, vs FPT vehicle lamb lungs",higher
same,cleaved caspase-3 protein levels in lung,"[3]; DOL10, PT lambs vs vehicle",significantly lower level
same,"mRNA levels for p53, caspase-3, c-Myc, and TGF-β in lung","[3]; DOL10, PT lambs vs vehicle",No significant difference
same,relative mRNA levels of TLR4 and cytokines in lung,"[3]; PT lambs vs control, FPT and term lambs",No differences were found
same,protein concentration of TLR4 and pathway-related cytokines in lung tissue,[3]; early-stage study,no differences were detected
same,VEGF-A protein level in lung,"[3]; early-stage study, 10d, PT group vs vehicle",significant decrease
same,TLR4 protein concentration (relative protein level) in lung tissue,"[3]; late-stage study (DOL90), FPT AVR-48 lambs",0.007±0.004
same,TLR4 protein concentration in lung tissue vs vehicle,"[3]; late-stage study (DOL90), FPT lambs vs FPT vehicle",significantly lower
same,"mRNA expression and protein level for VEGF-A, VEGFR2, and SP-B in lung","[3]; late-stage study, 90d, FPT AVR-48 vs FPT vehicle",no significant difference
same,IL-6 protein in lung tissue,[3]; [5],appeared lower (not significant)
same,IL-10 protein concentration in lung tissue,[3]; [5],appeared higher (not significant)
same,TNF-α protein in lung tissue,[3]; [5],appeared lower (not significant)
same,activation via TRAM,TLR4 pathway,no activation
same,phospho-MyD88,TLR4 pathway,increasing
same,phospho-TTRAP,TLR4 pathway,increasing
same,IL-1β profile,[4]; CBMC pre-treated with compound 100 μM for 48 h followed by LPS 50 ng/mL,inhibited IL-1β profile
same,TNF-α in LPS-tolerant CBMCs,"[4]; low dose LPS 48 h then second (high dose) LPS, with addition of compound",increased production of TNF-α
same,TNF-α level,"[4]; pretreatment 48 h followed by LPS 24 h, vs control",significant higher level
same,macrophage lineage,hPBMCs; day 3 (IFN-γ high CD206 high),highest % of intermediate macrophage
same,macrophage lineage,hPBMCs; day 7 (IFN-γ low CD206 high),polarizing to M2 phenotype
same,macrophage lineage,hPBMCs; day 10 (IFN-γ high CD206 low),finally to M1
